Data reported in ChEMBL document CHEMBL5325437, “Shifting the selectivity of pyrido[2,3-d]pyrimidin-7(8H)-one inhibitors towards the salt-inducible kinase (SIK) subfamily” (Eur J Med Chem, 2023).
Active and inactive are the calls of the source. The rule behind the calls is not given here.

Assays:
[1] = target: Serine/threonine-protein kinase SIK2 (Homo sapiens) (UniProt Q9H0K1); assay: Inhibition of SIK2 in human SK-OV-3 cells assessed as decrease in centrosome dissociation in G2 phase at 5 uM incubated for 48 hrs by immunofluorescence assay; format: cell-based
Ephrin type-A receptor 2 = Ephrin type-A receptor 2 (Homo sapiens, UniProt P29317); assay: Binding affinity to recombinant EPHA2 (unknown origin) assessed as stabilization by measuring change in melting temperature at 10 uM by SYPRO orange dye based differential scanning fluorimetry assay
[2] = target: Serine/threonine-protein kinase SIK2 (Homo sapiens) (UniProt Q9H0K1); assay: Inhibition of SIK2 in human SK-OV-3 cells assessed as upregulation of cyclin A expression level at 5 uM incubated for 48 hrs by Western blotting analysis; format: cell-based
Ephrin type-A receptor 4 [3] = target: T1, Ephrin type-A receptor 4 (Homo sapiens, UniProt P54764); assay: Inhibition of full length NanoLuc fused EPHA4 (unknown origin) transfected in HEK293T cells using NanoBRET NanoGlo substrate incubated for 2 hrs in presence of tracer by NanoBRET assay; format: cell-based
[4] = target: Serine/threonine-protein kinase SIK2 (Homo sapiens) (UniProt Q9H0K1); assay: Inhibition of SIK2 in human SK-OV-3 cells assessed as downregulation of AKT phosphorylation at Ser473 at 5 uM incubated for 48 hrs by Western blotting analysis; format: cell-based
[5] = target: Serine/threonine-protein kinase PAK 1 (Homo sapiens) (UniProt Q13153); assay: Binding affinity to recombinant PAK1 (unknown origin) assessed as stabilization by measuring change in melting temperature at 10 uM by SYPRO orange dye based differential scanning fluorimetry assay
[6] = target: Serine/threonine-protein kinase SIK2 (Homo sapiens) (UniProt Q9H0K1); assay: Inhibition of recombinant human GST-tagged SIK2 assessed as downregulation of SIK2 phosphorylation at Ser358 a 5 uM incubated for 30 mins by Western blotting analysis
[7] = target: T2, Mitogen-activated protein kinase 8 (Homo sapiens, UniProt P45983); assay: Inhibition of full length NanoLuc fused JNK1 (unknown origin) transfected in HEK293T cells using NanoBRET NanoGlo substrate incubated for 2 hrs in presence of tracer by NanoBRET assay; format: cell-based
HCT-116 [8] = assay: Cytotoxicity against human HCT-116 cells assessed as appearance of pyknosis nuclei at 1 uM incubated for 80 hrs by Hoechst-33342 staining high-content imaging analysis; format: toxicity, cell-based; settings: hct-116, 80 h
[9] = target: Ephrin type-B receptor 3 (Homo sapiens) (UniProt P54753); assay: Binding affinity to recombinant EPHB3 (unknown origin) assessed as stabilization by measuring change in melting temperature at 10 uM by SYPRO orange dye based differential scanning fluorimetry assay
Ephrin type-A receptor 4 [10] = target: T1, Ephrin type-A receptor 4; assay: Binding affinity to recombinant EPHA4 (unknown origin) assessed as stabilization by measuring change in melting temperature at 10 uM by SYPRO orange dye based differential scanning fluorimetry assay
[11] = target: Ephrin type-B receptor 1 (Homo sapiens) (UniProt P54762); assay: Binding affinity to recombinant EPHB1 (unknown origin) assessed as stabilization by measuring change in melting temperature at 10 uM by SYPRO orange dye based differential scanning fluorimetry assay
[12] = target: Serine/threonine-protein kinase SIK2 (Homo sapiens) (UniProt Q9H0K1); assay: Inhibition of SIK2 in human SK-OV-3 cells assessed as upregulation of PLK expression level at 5 uM incubated for 48 hrs by Western blotting analysis; format: cell-based
[13] = target: Serine/threonine-protein kinase 26 (Homo sapiens) (UniProt Q9P289); assay: Binding affinity to recombinant MST4 (unknown origin) assessed as stabilization by measuring change in melting temperature at 10 uM by SYPRO orange dye based differential scanning fluorimetry assay
[14] = target: Serine/threonine-protein kinase 24 (Homo sapiens) (UniProt Q9Y6E0); assay: Binding affinity to recombinant MST3 (unknown origin) assessed as stabilization by measuring change in melting temperature at 10 uM by SYPRO orange dye based differential scanning fluorimetry assay
Ephrin type-A receptor 3 = Ephrin type-A receptor 3 (Homo sapiens, UniProt P29320); assay: Inhibition of full length NanoLuc fused EPHA3 (unknown origin) transfected in HEK293T cells using NanoBRET NanoGlo substrate incubated for 2 hrs in presence of tracer by NanoBRET assay; format: cell-based
[15] = target: Cyclin-G-associated kinase (Homo sapiens) (UniProt O14976); assay: Binding affinity to recombinant GAK (unknown origin) assessed as stabilization by measuring change in melting temperature at 10 uM by SYPRO orange dye based differential scanning fluorimetry assay
[16] = target: Cyclin-G-associated kinase (Homo sapiens, UniProt O14976); assay: Inhibition of full length NanoLuc fused GAK (unknown origin) transfected in HEK293T cells using NanoBRET NanoGlo substrate incubated for 2 hrs in presence of tracer by NanoBRET assay; format: cell-based
HCT-116 [17] = assay: Cytotoxicity against human HCT-116 cells assessed as reduction in cell count at 1 uM incubated for >60 hrs by Hoechst-33342 staining high-content imaging analysis; format: toxicity, cell-based; settings: hct-116, 60 h
[18] = target: Tyrosine-protein kinase ABL1 (Homo sapiens, UniProt P00519); assay: Binding affinity to recombinant ABL1 (unknown origin) assessed as stabilization by measuring change in melting temperature at 10 uM by SYPRO orange dye based differential scanning fluorimetry assay
[19] = Drug metabolism in Sprague-Dawley rat liver microsomes assessed as compound metabolized incubated for 60 mins in presence of NADPH by HPLC analysis; format: ADME, Microsome; settings: 1 h
SK-OV-3 [20] = assay: Induction of cell cycle arrest in human SK-OV-3 cells assessed as accumulation of cells at G1 phase at 5 uM incubated for 24 hrs by flow cytometry (reference value: 34%); format: functional
Ephrin type-B receptor 2 = Ephrin type-B receptor 2 (Homo sapiens, UniProt P29323); assay: Inhibition of full length NanoLuc fused EPHB2 (unknown origin) transfected in HEK293T cells using NanoBRET NanoGlo substrate incubated for 2 hrs in presence of tracer by NanoBRET assay; format: cell-based
[21] = Binding affinity to recombinant RSK1b (unknown origin) assessed as stabilization by measuring change in melting temperature at 10 uM by SYPRO orange dye based differential scanning fluorimetry assay; settings: Homo sapiens
Ephrin type-B receptor 3 = Ephrin type-B receptor 3 (Homo sapiens, UniProt P54753); assay: Inhibition of full length NanoLuc fused EPHB3 (unknown origin) transfected in HEK293T cells using NanoBRET NanoGlo substrate incubated for 2 hrs in presence of tracer by NanoBRET assay; format: cell-based
[22] = target: T2, Mitogen-activated protein kinase 8; assay: Binding affinity to recombinant JNK1 (unknown origin) assessed as stabilization by measuring change in melting temperature at 10 uM by SYPRO orange dye based differential scanning fluorimetry assay
HCT-116 [23] = assay: Cytotoxicity against human HCT-116 cells assessed as appearance of pyknosis nuclei at 10 uM incubated for 80 hrs by Hoechst-33342 staining high-content imaging analysis; format: toxicity, cell-based; settings: hct-116, 80 h
SK-OV-3 [24] = assay: Induction of cell cycle arrest in human SK-OV-3 cells assessed as accumulation of cells at S phase at 5 uM incubated for 24 hrs by flow cytometry (reference value: 32%); format: functional
[25] = target: Serine/threonine-protein kinase SIK2 (Homo sapiens) (UniProt Q9H0K1); assay: Inhibition of recombinant human GST-tagged SIK2 assessed as downregulation of SIK2 phosphorylation at Ser358 incubated for 30 mins by Western blotting analysis

Serine/threonine-protein kinase SIK2 (Homo sapiens), sequence (Q9H0K1 whole entry, looked up, the tested form may be a part): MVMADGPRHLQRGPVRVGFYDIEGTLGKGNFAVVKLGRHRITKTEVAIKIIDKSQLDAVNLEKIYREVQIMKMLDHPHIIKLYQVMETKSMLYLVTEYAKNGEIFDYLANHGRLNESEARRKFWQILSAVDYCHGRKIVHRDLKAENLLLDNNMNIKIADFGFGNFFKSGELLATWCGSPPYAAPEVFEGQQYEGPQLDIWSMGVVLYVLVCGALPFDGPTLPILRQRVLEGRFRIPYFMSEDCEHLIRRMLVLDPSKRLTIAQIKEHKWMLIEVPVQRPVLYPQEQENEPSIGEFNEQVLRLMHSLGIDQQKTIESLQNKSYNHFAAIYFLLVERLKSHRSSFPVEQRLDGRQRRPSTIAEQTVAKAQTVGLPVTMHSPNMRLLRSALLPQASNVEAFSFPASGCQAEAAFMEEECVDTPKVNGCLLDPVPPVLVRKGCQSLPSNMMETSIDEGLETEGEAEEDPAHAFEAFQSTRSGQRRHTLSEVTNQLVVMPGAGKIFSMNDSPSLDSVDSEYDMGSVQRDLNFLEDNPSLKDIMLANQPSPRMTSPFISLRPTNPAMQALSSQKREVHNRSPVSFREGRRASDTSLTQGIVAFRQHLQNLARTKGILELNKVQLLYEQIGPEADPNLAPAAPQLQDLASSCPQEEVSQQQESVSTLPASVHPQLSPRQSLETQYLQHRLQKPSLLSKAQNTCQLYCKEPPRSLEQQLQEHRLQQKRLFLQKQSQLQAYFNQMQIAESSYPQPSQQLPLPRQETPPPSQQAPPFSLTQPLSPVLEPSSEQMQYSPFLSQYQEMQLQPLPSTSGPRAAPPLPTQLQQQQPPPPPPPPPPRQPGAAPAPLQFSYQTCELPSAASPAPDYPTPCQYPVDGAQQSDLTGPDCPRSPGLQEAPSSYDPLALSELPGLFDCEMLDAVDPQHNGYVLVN
T1 sequence (P54764 whole entry, the tested form may be a part): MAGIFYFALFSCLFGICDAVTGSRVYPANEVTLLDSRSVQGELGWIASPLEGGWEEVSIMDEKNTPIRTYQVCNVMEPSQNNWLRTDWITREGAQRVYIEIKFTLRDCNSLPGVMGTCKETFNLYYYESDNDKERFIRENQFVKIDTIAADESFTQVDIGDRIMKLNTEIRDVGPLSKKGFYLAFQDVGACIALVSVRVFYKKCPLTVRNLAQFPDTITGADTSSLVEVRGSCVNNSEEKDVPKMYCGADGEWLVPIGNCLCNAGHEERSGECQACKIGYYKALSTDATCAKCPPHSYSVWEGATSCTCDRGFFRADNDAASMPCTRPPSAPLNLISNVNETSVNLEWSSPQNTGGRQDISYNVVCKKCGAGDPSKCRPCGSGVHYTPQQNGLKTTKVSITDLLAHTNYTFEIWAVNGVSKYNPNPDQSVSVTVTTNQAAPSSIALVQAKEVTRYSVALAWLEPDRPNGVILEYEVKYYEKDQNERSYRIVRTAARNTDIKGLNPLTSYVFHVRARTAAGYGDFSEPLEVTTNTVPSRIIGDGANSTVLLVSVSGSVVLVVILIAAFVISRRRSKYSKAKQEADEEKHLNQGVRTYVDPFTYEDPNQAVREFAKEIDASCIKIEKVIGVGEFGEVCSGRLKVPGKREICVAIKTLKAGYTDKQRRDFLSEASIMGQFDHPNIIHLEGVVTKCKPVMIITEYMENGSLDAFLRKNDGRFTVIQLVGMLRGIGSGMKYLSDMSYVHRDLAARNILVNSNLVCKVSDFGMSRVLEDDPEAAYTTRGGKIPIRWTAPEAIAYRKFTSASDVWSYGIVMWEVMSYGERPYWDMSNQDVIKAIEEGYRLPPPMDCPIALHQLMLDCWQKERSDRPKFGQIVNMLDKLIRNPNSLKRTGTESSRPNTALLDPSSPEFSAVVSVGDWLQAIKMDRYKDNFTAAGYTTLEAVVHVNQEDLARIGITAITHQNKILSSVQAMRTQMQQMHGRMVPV
T2 sequence (P45983 whole entry, the tested form may be a part): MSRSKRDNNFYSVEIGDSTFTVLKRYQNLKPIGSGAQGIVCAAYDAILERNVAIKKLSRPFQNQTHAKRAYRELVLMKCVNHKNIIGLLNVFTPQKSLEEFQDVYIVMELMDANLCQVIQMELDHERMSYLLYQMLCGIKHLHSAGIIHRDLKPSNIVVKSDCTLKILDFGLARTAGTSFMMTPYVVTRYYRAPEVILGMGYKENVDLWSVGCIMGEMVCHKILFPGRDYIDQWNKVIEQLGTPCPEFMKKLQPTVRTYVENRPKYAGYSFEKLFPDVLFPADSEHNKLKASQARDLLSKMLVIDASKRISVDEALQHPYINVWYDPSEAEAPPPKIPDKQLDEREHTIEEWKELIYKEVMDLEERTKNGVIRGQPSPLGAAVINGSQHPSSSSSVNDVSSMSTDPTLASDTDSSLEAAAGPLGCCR
Cyclin-G-associated kinase (Homo sapiens), sequence (O14976 whole entry, the tested form may be a part): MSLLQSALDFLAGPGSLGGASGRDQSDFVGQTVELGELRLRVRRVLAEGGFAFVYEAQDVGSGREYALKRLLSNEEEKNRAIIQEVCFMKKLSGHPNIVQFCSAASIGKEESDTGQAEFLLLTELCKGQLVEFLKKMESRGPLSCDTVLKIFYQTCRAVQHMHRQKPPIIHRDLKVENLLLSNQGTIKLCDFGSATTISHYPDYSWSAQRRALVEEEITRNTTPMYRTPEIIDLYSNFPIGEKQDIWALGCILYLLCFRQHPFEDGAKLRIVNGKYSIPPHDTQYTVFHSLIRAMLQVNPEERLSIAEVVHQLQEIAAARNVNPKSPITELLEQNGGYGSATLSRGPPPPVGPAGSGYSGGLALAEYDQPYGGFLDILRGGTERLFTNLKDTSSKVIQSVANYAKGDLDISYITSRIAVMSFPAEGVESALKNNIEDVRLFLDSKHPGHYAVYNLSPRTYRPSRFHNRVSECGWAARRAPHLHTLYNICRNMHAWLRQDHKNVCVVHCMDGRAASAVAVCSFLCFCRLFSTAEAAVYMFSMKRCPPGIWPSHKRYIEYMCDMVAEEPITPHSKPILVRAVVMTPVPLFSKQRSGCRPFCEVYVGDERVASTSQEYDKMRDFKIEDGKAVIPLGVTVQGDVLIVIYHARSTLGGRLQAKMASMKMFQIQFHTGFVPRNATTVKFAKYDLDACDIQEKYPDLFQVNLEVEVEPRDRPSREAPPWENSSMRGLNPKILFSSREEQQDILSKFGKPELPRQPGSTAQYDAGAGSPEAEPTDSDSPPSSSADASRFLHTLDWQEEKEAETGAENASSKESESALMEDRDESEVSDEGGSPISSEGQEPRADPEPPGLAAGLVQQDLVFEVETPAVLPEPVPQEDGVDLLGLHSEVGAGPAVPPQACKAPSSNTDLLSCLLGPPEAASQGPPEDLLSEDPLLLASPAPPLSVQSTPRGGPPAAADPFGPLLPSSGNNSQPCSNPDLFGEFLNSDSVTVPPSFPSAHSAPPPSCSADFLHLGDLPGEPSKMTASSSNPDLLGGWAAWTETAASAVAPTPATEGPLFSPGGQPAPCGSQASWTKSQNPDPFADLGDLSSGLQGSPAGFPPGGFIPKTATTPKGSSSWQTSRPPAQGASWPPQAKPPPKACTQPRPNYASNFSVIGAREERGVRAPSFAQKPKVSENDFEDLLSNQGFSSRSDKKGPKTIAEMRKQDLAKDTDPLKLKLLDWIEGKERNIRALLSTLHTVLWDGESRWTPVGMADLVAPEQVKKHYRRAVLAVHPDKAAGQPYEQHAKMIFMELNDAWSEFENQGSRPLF
Cyclin-G-associated kinase, sequence (O14976 whole entry, the tested form may be a part): as above
Tyrosine-protein kinase ABL1, sequence (P00519 whole entry): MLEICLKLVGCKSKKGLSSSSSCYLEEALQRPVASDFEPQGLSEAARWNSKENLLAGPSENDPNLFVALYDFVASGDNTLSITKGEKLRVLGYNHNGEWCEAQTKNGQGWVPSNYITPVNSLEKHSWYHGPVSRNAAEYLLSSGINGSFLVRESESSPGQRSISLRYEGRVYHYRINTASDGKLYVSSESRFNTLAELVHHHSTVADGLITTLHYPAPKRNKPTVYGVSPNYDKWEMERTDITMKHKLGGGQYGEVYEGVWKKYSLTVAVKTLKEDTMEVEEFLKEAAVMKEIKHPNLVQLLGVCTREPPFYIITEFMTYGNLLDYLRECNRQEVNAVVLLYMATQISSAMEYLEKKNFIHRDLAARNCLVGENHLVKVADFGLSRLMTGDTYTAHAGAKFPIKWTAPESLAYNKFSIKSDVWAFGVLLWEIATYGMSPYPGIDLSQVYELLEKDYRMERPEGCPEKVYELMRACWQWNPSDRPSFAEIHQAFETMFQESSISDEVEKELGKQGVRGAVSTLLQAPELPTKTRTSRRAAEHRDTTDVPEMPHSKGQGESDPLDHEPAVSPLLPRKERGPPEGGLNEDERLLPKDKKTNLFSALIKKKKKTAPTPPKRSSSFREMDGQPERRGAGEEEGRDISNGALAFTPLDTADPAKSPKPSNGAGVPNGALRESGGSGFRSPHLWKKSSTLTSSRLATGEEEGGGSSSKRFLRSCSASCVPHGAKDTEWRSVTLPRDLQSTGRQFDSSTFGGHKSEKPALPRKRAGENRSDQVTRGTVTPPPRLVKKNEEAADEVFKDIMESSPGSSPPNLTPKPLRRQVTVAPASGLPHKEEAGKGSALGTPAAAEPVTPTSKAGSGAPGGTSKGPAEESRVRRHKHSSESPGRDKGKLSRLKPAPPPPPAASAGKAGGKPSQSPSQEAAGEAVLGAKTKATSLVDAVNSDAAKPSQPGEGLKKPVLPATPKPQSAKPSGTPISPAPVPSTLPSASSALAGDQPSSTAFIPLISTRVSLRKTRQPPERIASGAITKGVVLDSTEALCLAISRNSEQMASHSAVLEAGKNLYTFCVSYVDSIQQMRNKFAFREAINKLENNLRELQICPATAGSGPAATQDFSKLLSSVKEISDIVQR

inhibition [1]: Active
ΔTm (Ephrin type-A receptor 2): 8.9 °C
inhibition [2]: Active
IC50 (Ephrin type-A receptor 4 [3]): 1.6 µM
inhibition [4]: Active
ΔTm [5]: 0 °C
inhibition [6]: Active
IC50 [7]: 23.2 µM
ΔTm [9]: 5.6 °C
ΔTm (Ephrin type-A receptor 4 [10]): 5.5 °C
ΔTm [11]: 7 °C
inhibition [12]: Active
ΔTm [13]: 0.9 °C
ΔTm [14]: 1.5 °C
IC50 (Ephrin type-A receptor 3): 2.1 µM
ΔTm [15]: 5.9 °C
IC50 [16]: 33.8 µM
ΔTm [18]: 7.4 °C
Drug metabolism [19]: Metabolite_Detected
IC50 (Ephrin type-B receptor 2): 22.6 µM
ΔTm [21]: 15.1 °C
IC50 (Ephrin type-B receptor 3): 18.3 µM
ΔTm [22]: 7.3 °C
inhibition [25]: Dose-Dependent Effect
Structure (SMILES): CNc1ncc2cc(-c3cc(F)ccc3F)c(=O)n(CCCCN)c2n1
Activity (HCT-116 [8]): Toxic
Activity (HCT-116 [17]): Toxic
Activity (SK-OV-3 [20]): 50%
Activity (HCT-116 [23]): 30%
Activity (SK-OV-3 [24]): 19%
